US9266876B2 (Actelion Pharmaceuticals Ltd., priority 2012, dated 2016)

Experiments:
[1] = biological target: human CXCR3A (Homo sapiens (Human), UniProt P49682); test: FLIPR assay; format: cell-based; conditions: CHO-K1 cells expressing the human CXCR3A coupled to Galpha(16); CXCL10 agonist 20 nM; Fluo-4-AM fluorescence; mean values if determined several times
Outline: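 CHO-K1 cells expressing CXCR3A coupled to Gα16 were loaded with Fluo-4-AM for 1 h in Hepes-buffered HBSS, pH 7.4, with 5 mM probenecid. Compound dilutions were added on the FLIPR, followed by CXCL10 (added as a 20 nM solution). Baseline-subtracted peak fluorescence was fitted to a single-site curve for IC50.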

[2] = biological target: CXCR3 (Homo sapiens (Human), UniProt P49682); test: Receptor internalization assay; format: cell-based; conditions: human whole blood; final CXCL10 concentration 9 nM; 30 min 37° C.; CXCR3 cell surface expression on CD3 positive cells, flow cytometer; read-out: Internalization IC50
Sequence of CXCR3 (P49682 whole entry): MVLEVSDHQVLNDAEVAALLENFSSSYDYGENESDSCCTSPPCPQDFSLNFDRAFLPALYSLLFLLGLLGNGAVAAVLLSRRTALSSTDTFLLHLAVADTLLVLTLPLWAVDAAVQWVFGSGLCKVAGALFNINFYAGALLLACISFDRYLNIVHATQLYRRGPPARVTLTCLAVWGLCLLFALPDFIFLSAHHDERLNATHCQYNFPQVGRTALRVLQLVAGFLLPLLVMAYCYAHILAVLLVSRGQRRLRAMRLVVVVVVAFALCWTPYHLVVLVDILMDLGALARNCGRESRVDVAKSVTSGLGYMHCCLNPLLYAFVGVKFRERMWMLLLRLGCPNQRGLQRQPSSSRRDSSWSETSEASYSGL
Outline: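 In human whole blood, compounds were incubated with CXCL10 (9 nM final) for 30 min at 37 °C to drive receptor internalization, then stained with anti-CXCR3/CD3 antibodies and lysed of red cells. Flow cytometry measured mean surface CXCR3 fluorescence on CD3+ cells, and IC50 came from single-site dose-response fits.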

Sequence of human CXCR3A (P49682 whole entry): as above

IC50 [1]	IC50 [2]	SMILES
6 nM	6560 nM	C[C@@H]1CN(c2sc(C(F)(F)F)nc2-c2nc3ccccc3[nH]2)CCN1C(=O)Cc1nnc(-c2ccccc2)o1 [Example 196, 1-{(R)-4-[4-(1H-Benzoimidazol-2-yl)-2-trifluoromethyl-thiazol-5-yl]-2-methyl-piperazin-1-yl}-2-(5-phenyl-[1,3,4]oxadiazol-2-yl)-ethanone]
8 nM	5310 nM	C[C@@H]1CN(c2sc(C(F)(F)F)nc2-c2nc3ccccc3[nH]2)CCN1C(=O)Cn1nccn1 [Example 197, 1-{(R)-4-[4-(1H-Benzoimidazol-2-yl)-2-trifluoromethyl-thiazol-5-yl]-2-methyl-piperazin-1-yl}-2-[1,2,3]triazol-2-yl-ethanone]
28 nM	627 nM	C[C@@H]1CN(c2sc(C(F)(F)F)nc2-c2nc3ccccc3[nH]2)CCN1C(=O)Cc1ccccc1-n1nccn1 [Example 200, 1-{(R)-4-[4-(1H-Benzoimidazol-2-yl)-2-trifluoromethyl-thiazol-5-yl]-2-methyl-piperazin-1-yl}-2-(2-[1,2,3]triazol-2-yl-phenyl)-ethanone]
2 nM	2860 nM	C[C@@H]1CN(c2sc(C(F)(F)F)nc2-c2nc3ccccc3[nH]2)CCN1C(=O)Cc1cccc(-n2nccn2)c1 [Example 201, 1-{(R)-4-[4-(1H-Benzoimidazol-2-yl)-2-trifluoromethyl-thiazol-5-yl]-2-methyl-piperazin-1-yl}-2-(3-[1,2,3]triazol-2-yl-phenyl)-ethanone]
1 nM	44 nM	C[C@@H]1CN(c2sc(C(F)(F)F)nc2-c2nc3ccccc3[nH]2)CCN1C(=O)Cn1cc2cccnc2n1 [Example 202, 1-{(R)-4-[4-(1H-Benzoimidazol-2-yl)-2-trifluoromethyl-thiazol-5-yl]-2-methyl-piperazin-1-yl}-2-pyrazolo[3,4-b]pyridin-2-yl-ethanone]
5 nM	2100 nM	C[C@@H]1CN(c2sc(C(F)(F)F)nc2-c2nc3ccccc3[nH]2)CCN1C(=O)Cc1ccccc1-n1cccn1 [Example 203, 1-{(R)-4-[4-(1H-Benzoimidazol-2-yl)-2-trifluoromethyl-thiazol-5-yl]-2-methyl-piperazin-1-yl}-2-(2-pyrazol-1-yl-phenyl)-ethanone]
6 nM	4180 nM	C[C@@H]1CN(c2sc(C(F)(F)F)nc2-c2nc3ccccc3[nH]2)CCN1C(=O)Cn1nccc1-c1ccccc1 [Example 204, 1-{(R)-4-[4-(1H-Benzoimidazol-2-yl)-2-trifluoromethyl-thiazol-5-yl]-2-methyl-piperazin-1-yl}-2-(5-phenyl-pyrazol-1-yl)-ethanone]
2 nM	111 nM	C[C@@H]1CN(c2sc(C(F)(F)F)nc2-c2nc3ccccc3[nH]2)CCN1C(=O)CN1C(=O)C(F)(F)c2ccccc21 [Example 205, 1-(2-{(R)-4-[4-(1H-Benzoimidazol-2-yl)-2-trifluoromethyl-thiazol-5-yl]-2-methyl-piperazin-1-yl}-2-oxo-ethyl)-3,3-difluoro-1,3-dihydro-indol-2-one]
1 nM	310 nM	C[C@@H]1CN(c2sc(C(F)(F)F)nc2-c2nc3ccccc3[nH]2)CCN1C(=O)Cc1ccccc1N1CCN(C)CC1 [Example 208, 1-{(R)-4-[4-(1H-Benzoimidazol-2-yl)-2-trifluoromethyl-thiazol-5-yl]-2-methyl-piperazin-1-yl}-2-[2-(4-methyl-piperazin-1-yl)-phenyl]-ethanone]

Second part, the compound before the results:

SMILES	IC50 [1]	IC50 [2]
Cc1nnc(CC(=O)N2CCN(c3sc(C(F)(F)F)nc3-c3nc4ccccc4[nH]3)C[C@H]2C)o1 [Example 195, 1-{(R)-4-[4-(1H-Benzoimidazol-2-yl)-2-trifluoromethyl-thiazol-5-yl]-2-methyl-piperazin-1-yl}-2-(5-methyl-[1,3,4]oxadiazol-2-yl)-ethanone]	8 nM	2710 nM
COC(=O)c1ccn(CC(=O)N2CCN(c3sc(C(F)(F)F)nc3-c3nc4ccccc4[nH]3)C[C@H]2C)n1 [Example 198, 1-(2-{(R)-4-[4-(1H-Benzoimidazol-2-yl)-2-trifluoromethyl-thiazol-5-yl]-2-methyl-piperazin-1-yl}-2-oxo-ethyl)-1H-pyrazole-3-carboxylic acid methyl ester]	2 nM	6900 nM
Cc1ccc(CC(=O)N2CCN(c3sc(C(F)(F)F)nc3-c3nc4ccccc4[nH]3)C[C@H]2C)cn1 [Example 199, 1-{(R)-4-[4-(1H-Benzoimidazol-2-yl)-2-trifluoromethyl-thiazol-5-yl]-2-methyl-piperazin-1-yl}-2-(6-methyl-pyridin-3-yl)-ethanone]	0.4 nM	658 nM
C[C@@H]1CN(c2sc(C(F)(F)F)nc2-c2nc3ccccc3[nH]2)CCN1C(=O)Cn1cnc2cnccc21 [Example 206, 1-{(R)-4-[4-(1H-Benzoimidazol-2-yl)-2-trifluoromethyl-thiazol-5-yl]-2-methyl-piperazin-1-yl}-2-imidazo[4,5-c]pyridin-1-yl-ethanone]	2 nM	260 nM
C[C@@H]1CN(c2sc(C(F)(F)F)nc2-c2nc3ccccc3[nH]2)CCN1C(=O)Cn1cnc(Br)n1 [Example 207, 1-{(R)-4-[4-(1H-Benzoimidazol-2-yl)-2-trifluoromethyl-thiazol-5-yl]-2-methyl-piperazin-1-yl}-2-(3-bromo-[1,2,4]triazol-1-yl)-ethanone]	1 nM	332 nM
C[C@@H]1CN(c2sc(C(F)(F)F)nc2-c2nc3ccccc3[nH]2)CCN1C(=O)Cn1cnc2c1CCN(C)C2 [Example 209, 1-{(R)-4-[4-(1H-Benzoimidazol-2-yl)-2-trifluoromethyl-thiazol-5-yl]-2-methyl-piperazin-1-yl}-2-(5-methyl-4,5,6,7-tetrahydro-imidazo[4,5-c]pyridin-1-yl)-ethanone]	3 nM	101 nM
C[C@@H]1CN(c2sc(C(F)(F)F)nc2-c2nc3ccccc3[nH]2)CCN1C(=O)Cn1cnc2c1CN(C)CC2 [Example 210, 1-{(R)-4-[4-(1H-Benzoimidazol-2-yl)-2-trifluoromethyl-thiazol-5-yl]-2-methyl-piperazin-1-yl}-2-(5-methyl-4,5,6,7-tetrahydro-imidazo[4,5-c]pyridin-3-yl)-ethanone]	1 nM	121 nM
Cc1nn(CC(=O)N2CCN(c3sc(C(F)(F)F)nc3-c3nc4ccccc4[nH]3)C[C@H]2C)cc1CN(C)C [Example 211, 1-{(R)-4-[4-(1H-Benzoimidazol-2-yl)-2-trifluoromethyl-thiazol-5-yl]-2-methyl-piperazin-1-yl}-2-(4-dimethylaminomethyl-3-methyl-pyrazol-1-yl)-ethanone]	1 nM	227 nM
Cc1ncnn1CC(=O)N1CCN(c2sc(C(F)(F)F)nc2-c2nc3ccccc3[nH]2)C[C@H]1C [Example 212, 1-{(R)-4-[4-(1H-Benzoimidazol-2-yl)-2-trifluoromethyl-thiazol-5-yl]-2-methyl-piperazin-1-yl}-2-(5-methyl-[1,2,4]triazol-1-yl)-ethanone]	4 nM	737 nM
Cc1ncn(CC(=O)N2CCN(c3sc(C(F)(F)F)nc3-c3nc4ccccc4[nH]3)C[C@H]2C)n1 [Example 213, 1-{(R)-4-[4-(1H-Benzoimidazol-2-yl)-2-trifluoromethyl-thiazol-5-yl]-2-methyl-piperazin-1-yl}-2-(3-methyl-[1,2,4]triazol-1-yl)-ethanone]	1 nM	373 nM
Cc1nn(CC(=O)N2CCN(c3sc(C(F)(F)F)nc3-c3nc4ccccc4[nH]3)C[C@H]2C)c(C)c1CN(C)C [Example 214, 1-{(R)-4-[4-(1H-Benzoimidazol-2-yl)-2-trifluoromethyl-thiazol-5-yl]-2-methyl-piperazin-1-yl}-2-(4-dimethylaminomethyl-3,5-dimethyl-pyrazol-1-yl)-ethanone]	2 nM	72 nM
C[C@@H]1CN(c2sc(C(F)(F)F)nc2-c2nc3ccccc3[nH]2)CCN1C(=O)Cn1cc2c(n1)CCN(C)C2 [Example 215, 1-{(R)-4-[4-(1H-Benzoimidazol-2-yl)-2-trifluoromethyl-thiazol-5-yl]-2-methyl-piperazin-1-yl}-2-(5-methyl-4,5,6,7-tetrahydro-pyrazolo[4,3-c]pyridin-2-yl)-ethanone]	2 nM	271 nM
C[C@@H]1CN(c2sc(C(F)(F)F)nc2-c2nc3ccccc3[nH]2)CCN1C(=O)Cn1ncc2c1CCN(C)C2 [Example 216, 1-{(R)-4-[4-(1H-Benzoimidazol-2-yl)-2-trifluoromethyl-thiazol-5-yl]-2-methyl-piperazin-1-yl}-2-(5-methyl-4,5,6,7-tetrahydro-pyrazolo[4,3-c]pyridin-1-yl)-ethanone]	2 nM	90 nM
C[C@@H]1CN(c2sc(C(F)(F)F)nc2-c2nc3ccccc3[nH]2)CCN1C(=O)CN1CCc2[nH]ncc2C1 [Example 217, 1-{(R)-4-[4-(1H-Benzoimidazol-2-yl)-2-trifluoromethyl-thiazol-5-yl]-2-methyl-piperazin-1-yl}-2-(1,4,6,7-tetrahydro-pyrazolo[4,3-c]pyridin-5-yl)-ethanone]	21 nM	5010 nM
Cc1nc(CN(C)C)nn1CC(=O)N1CCN(c2sc(C(F)(F)F)nc2-c2nc3ccccc3[nH]2)C[C@H]1C [Example 218, 1-{(R)-4-[4-(1H-Benzoimidazol-2-yl)-2-trifluoromethyl-thiazol-5-yl]-2-methyl-piperazin-1-yl}-2-(3-dimethylaminomethyl-5-methyl-[1,2,4]triazol-1-yl)-ethanone]	8 nM	540 nM
